Results published in US9669028B2, “Substituted 5-(pyrazin-2-yl)-1H-pyrazolo [3, 4-B] pyridine and pyrazolo [3, 4-B] pyridine derivatives as protein kinase inhibitors” (Arrien Pharmaceuticals LLC, priority 2011, dated 2017).
pIC50: −log10 of the molar value. Converted amounts (≈) assume the structure as drawn. “And” between values parts separate entries of the source, which are not always exact repeats. Equal values may be shown once.

Legend:
[1] = system: MPTP-injected C57 black mice; assay: MPTP mouse model of Parkinson's disease, oral pre-treatment; assay type: in vivo; conditions: for protection against MPTP-induced TH cell loss and dopaminergic degeneration in substantia nigra and striatum: 10 mg/kg and 30 mg/kg oral; for locomotor activities in MPTP-injected mice / striatal dopamine levels in MPTP treated mice: orally administered, pre-treatment
[2] = system: Rat hepatoma (H4IIE) cell line; assay: In vitro toxicology, general cytotoxicity; assay type: cell-based
Description: Cells were seeded into 96-well plates and cultured in medium containing 20% bovine serum. […] General cytotoxicity was evaluated by monitoring membrane integrity (MBR, cell supernatant), cell mass (PI) and mitochondrial function (cellular ATP levels). Rotenone was included as a positive control because it produces measurable effects in all three assays. DMSO at 0.5% in medium was included as a negative control. Three wells per exposure concentration were used in each assay. Results are summarized in Table 8 and are expressed as percent of control, with control values set at 100%. […] Test compounds 13 and 13 HCl were rank-ordered from most to least toxic based on individual membrane integrity and ATP responses as well as resultant TC50 values.
Test compounds 13 and 13 HCl were rank-ordered from highest to lowest probability of producing toxicity based first on membrane toxicity, then on ATP, and finally on cell mass (PI). It is important to note that within a given grouping compounds may be classified as to their primary effect being either cytotoxic, cytostatic, or reducing mitochondrial function. In general, compound responses above 80% of vehicle control are considered to be low-to-no effect, moderates generally rank 80% to 50% of vehicle control, and those compounds that cross the 50% mark are considered to have higher probability of toxicity.

[3] = system: MPTP-injected C57 black mice; assay: MPTP mouse model, post-treatment study; assay type: in vivo; conditions: post-administration, oral and i.v routes
Description: (§1) 32 C57 black mice (C57/bl6, 6-8 week old, 25-30 g) were purchased from Charles River Laboratories, Ohio. […] All animals were housed in Laboratory of Animal Resources vivarium at Iowa State University under standard conditions: constant temperature (22±1° C.), humidity (relative, 30%), and a 12-h light/dark cycle. Mice were allowed free access to food and water. Use of the animals and protocol procedures were approved and supervised by the Committee on Animal Care at Iowa State University (Ames, Iowa). Test compounds were dissolved in PBS for this study. Prior to treatment animals were pre-trained on rotarod for at least 3 minutes every day for three successive days. Group A animals were injected with saline (i.p.) to be used as controls. MPTP was dissolved in PBS and injected intraperitoneally (i.p.) at doses of 25 mg/kg, once daily for 5 days to group B, C and D animals. On day 4, prior to 4th MPTP injection, group C animals received test compounds (30 mg/kg, oral) daily for eight days. Similarly, on day 4, prior to 4th MPTP injection, group D animals received test compounds (5 mg/kg, i.v) daily for eight days. On day 9 (Post-test compounds administration) or day 12 (7 days post-MPTP), 4 animals/group were sacrificed, different brain regions including striatum and substantia nigra were dissected. Left striatum were used for neurochemical analysis. Other 4 animals/group were perfused and used for TH immunohistological studies.

[4] = system: MPTP-injected C57 black mice; assay: MPTP mouse model, intravenous pre-treatment; assay type: in vivo; conditions: 5 mg/kg i.v.
Description: 24 C57 black mice (C57/bl6, 6-8 week old, and 25-30 g) were purchased from Charles River Laboratories, Ohio. […] Prior to treatment animals were pre-trained on rotarod for at least 3 minutes every day for three successive days. Test compound (5 mg/kg) was administered intravenously to group C animals, 24 h prior to MPTP-injection and continued daily for additional 11 days. MPTP was dissolved in PBS and injected intraperitoneally (i.p.) at doses of 25 mg/kg, once daily for 5 days to group B and C animals. Group A animals were injected with saline (i.p.) to be used as controls. Urine and Faeces were collected on Day 8, behavioural studies were performed on Day 9 (4-days post-MPTP). On day 12 (7 days post-MPTP), 4 animals/group were sacrificed, different brains regions including striatum and substantia nigra were dissected. Left striatum were used for neurochemical analysis. Other 4 animals/group were perfused and used for TH immunohistological studies.

in vivo = conditions: male, Sprague Dawley, rat
Text: To investigate the pharmacokinetic profiles of test compound following intravenous bolus administration and oral gavage in male Sprague Dawley rats.

[5] = BBB post-treatment results, concentration in mice brains; assay type: in vivo, mouse; conditions: pooled regions
Description: as §1, with “Other 4 animals/group were perfused and used for TH immunohistological studies.” left out

DYRK1A = DYRK1A (Homo sapiens (Human), UniProt Q13627); assay: In vitro DYRK1A inhibition assay; assay type: biochemical
[6] = system: 299 protein kinases+17 additional preview kinases; assay: Protein Kinase Selectivity Profiler; assay type: biochemical, human; conditions: LRRK2, LRRK2 G2019S, CHK1, DYRK1A, FLT3, MLK1, TNIK, TRKA; single dose 0.5 μM, 1 μM; 10 μM ATP
Description: In vitro profiling of the 317 member kinase panel was performed at Reaction Biology Corporation using the “HotSpot” assay platform. Briefly, specific kinase/substrate pairs along with required cofactors were prepared in reaction buffer; 20 mM Hepes (pH 7.5), 10 mM MgCl2, 1 mM EGTA, 0.02% Brij35, 0.02 mg/ml BSA, 0.1 mM Na3VO4, 2 mM DTT, 1% DMSO. Compounds were delivered into the reaction, followed ˜20 min later by addition of a mixture of ATP (Sigma) and 33P ATP (PerkinElmer) to a final concentration of 10 μM. Reactions were carried out at 25° C. for 120 min, followed by spotting of the reactions onto P81 ion exchange filter paper (Whatman). Unbound phosphate was removed by extensive washing of filters in 0.75% phosphoric acid. […] IC50 values and curve fits were obtained using Prism (GraphPad Software). Kinome tree representations were prepared using Kinome Mapper (http://www.reactionbiology.com/apps/kinome/mapper/Launch Kinome.htm). Specifically for the LRRK2 enzyme the substrate LRRKtide (gene bank and protein access numbers NP_940980.2 Q5S007) and clone aa 970-2527 expressed in baculovirus in insect cells with N-terminal GST tag was employed in the study protocol. In the case of DYRK1A (SEQ ID NO 16) the substrate casein (gene bank and protein access numbers NP_001387 Q13627) full length clone expressed in insect with n-terminal tag was used.
A control compound was tested in 10-dose IC50 mode with 3-fold serial dilution starting at 20 μM. Reactions were carried out at 10 μM ATP. Data pages include raw data, % Enzyme activity (relative to DMSO controls), and curve fits.

LRRK2 = LRRK2 (Homo sapiens (Human), UniProt Q5S007); assay: LRRK2 Kinase Assay; assay type: biochemical; conditions: 10 μM ATP
Sequence of LRRK2 (Q5S007 970-2527): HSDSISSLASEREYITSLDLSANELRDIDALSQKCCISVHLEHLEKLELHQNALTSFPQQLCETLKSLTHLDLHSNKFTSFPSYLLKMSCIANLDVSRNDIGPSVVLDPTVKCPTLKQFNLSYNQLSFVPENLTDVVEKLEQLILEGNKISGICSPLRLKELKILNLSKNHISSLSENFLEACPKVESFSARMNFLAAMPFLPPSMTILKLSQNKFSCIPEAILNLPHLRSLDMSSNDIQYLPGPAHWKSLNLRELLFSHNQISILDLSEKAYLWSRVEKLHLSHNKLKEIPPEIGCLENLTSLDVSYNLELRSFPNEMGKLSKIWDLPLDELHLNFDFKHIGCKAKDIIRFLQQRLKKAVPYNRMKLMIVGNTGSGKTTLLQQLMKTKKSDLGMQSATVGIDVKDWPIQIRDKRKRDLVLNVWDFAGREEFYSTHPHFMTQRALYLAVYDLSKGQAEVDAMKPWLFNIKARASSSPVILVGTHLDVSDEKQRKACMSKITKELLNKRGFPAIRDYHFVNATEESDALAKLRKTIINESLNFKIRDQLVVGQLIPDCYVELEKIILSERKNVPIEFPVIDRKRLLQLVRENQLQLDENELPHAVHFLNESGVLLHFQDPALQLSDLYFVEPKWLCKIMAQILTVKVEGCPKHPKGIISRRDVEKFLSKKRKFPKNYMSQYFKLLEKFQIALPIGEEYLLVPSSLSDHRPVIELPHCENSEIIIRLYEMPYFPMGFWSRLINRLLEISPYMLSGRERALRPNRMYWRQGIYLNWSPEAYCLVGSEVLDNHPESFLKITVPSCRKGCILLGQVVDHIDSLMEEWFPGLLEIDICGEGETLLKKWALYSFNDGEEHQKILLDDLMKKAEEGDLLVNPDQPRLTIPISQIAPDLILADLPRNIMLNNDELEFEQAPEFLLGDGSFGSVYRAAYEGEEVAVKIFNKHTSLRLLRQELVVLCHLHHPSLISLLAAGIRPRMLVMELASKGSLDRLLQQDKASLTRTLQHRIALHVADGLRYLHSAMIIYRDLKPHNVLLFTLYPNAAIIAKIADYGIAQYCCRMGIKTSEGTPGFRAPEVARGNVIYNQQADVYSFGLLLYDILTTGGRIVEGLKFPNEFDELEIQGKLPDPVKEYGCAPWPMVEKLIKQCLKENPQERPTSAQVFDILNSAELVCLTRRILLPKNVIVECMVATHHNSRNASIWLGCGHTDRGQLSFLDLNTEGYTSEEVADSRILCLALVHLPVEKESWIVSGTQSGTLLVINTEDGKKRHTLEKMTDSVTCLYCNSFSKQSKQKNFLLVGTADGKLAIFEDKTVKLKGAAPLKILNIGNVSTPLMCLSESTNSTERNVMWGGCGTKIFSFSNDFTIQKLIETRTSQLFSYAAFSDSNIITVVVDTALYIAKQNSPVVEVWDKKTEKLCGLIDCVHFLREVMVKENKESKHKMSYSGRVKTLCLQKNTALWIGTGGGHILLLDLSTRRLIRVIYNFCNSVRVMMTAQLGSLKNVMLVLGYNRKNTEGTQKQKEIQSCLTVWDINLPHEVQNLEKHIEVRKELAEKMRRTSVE
Method in brief: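 Radiometric filter-binding assay: compound pre-incubated ~20 min with kinase and substrate peptide in 20 mM HEPES pH 7.5, 10 mM MgCl2, 1% DMSO, then 10 μM ATP with 33P-ATP added.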

LRRK2 G2019S = LRRK2 G2019S (Homo sapiens (Human), UniProt Q5S007, G2019S); assay: LRRK2 G2019S Kinase Assay; assay type: biochemical; conditions: 10 μM ATP
Sequence of LRRK2 G2019S (Q5S007 970-2527 G2019S): as the sequence (Q5S007 970-2527) above, with G1050S counted along it
Method in brief: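 Radiometric filter-binding assay: enzyme, substrate peptide and compound were mixed on ice, ATP added, then incubated 20 min at 30° C. Reaction was stopped with phosphoric acid and the peptide captured on filters. Incorporated radioactivity was read by scintillation counting; staurosporine served as reference.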

recombinant human MAO-A = recombinant human MAO-A (Homo sapiens (Human), UniProt P21397); assay: Inhibition of monoamine oxidase MAO-A; assay type: biochemical; conditions: kynuramine 50 μM, 25 min at 37° C.
Sequence of recombinant human MAO-A (P21397 whole entry): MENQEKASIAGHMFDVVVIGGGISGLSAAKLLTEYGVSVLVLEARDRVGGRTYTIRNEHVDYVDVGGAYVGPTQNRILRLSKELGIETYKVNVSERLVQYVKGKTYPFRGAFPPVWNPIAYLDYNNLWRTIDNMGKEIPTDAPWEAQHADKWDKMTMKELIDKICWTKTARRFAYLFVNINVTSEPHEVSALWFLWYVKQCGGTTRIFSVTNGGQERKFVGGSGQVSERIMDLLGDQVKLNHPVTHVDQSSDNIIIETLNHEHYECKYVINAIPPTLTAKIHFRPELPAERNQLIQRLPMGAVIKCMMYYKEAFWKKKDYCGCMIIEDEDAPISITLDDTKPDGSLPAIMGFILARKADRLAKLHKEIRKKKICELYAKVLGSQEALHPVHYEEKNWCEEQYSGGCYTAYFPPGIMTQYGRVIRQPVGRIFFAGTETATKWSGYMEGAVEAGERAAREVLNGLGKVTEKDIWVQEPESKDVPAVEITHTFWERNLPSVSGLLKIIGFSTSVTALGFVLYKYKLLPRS
Description: (§2) Test compounds (0.01-100 μM) final DMSO concentration 0.1%, were incubated with recombinant human MAO-A (2 μg/mL) or MAO-B (2 μg/mL) in the presence of the probe substrate kynuramine (50 μM) for 25 min at 37° C. […] The reactions were terminated by addition of methanol containing internal standard for analytical quantification. The quenched samples were incubated at 4° C. for 10 min and centrifuged at 4° C. for 10 min. The supernatant was removed and analyzed by LC-MS/MS for the probe metabolite 4-hydroxyquinoline.

recombinant human MAO-B = recombinant human MAO-B (Homo sapiens (Human), UniProt P27338); assay: Inhibition of monoamine oxidase MAO-B; assay type: biochemical; conditions: kynuramine 50 μM, 25 min at 37° C.
Sequence of recombinant human MAO-B (P27338 whole entry): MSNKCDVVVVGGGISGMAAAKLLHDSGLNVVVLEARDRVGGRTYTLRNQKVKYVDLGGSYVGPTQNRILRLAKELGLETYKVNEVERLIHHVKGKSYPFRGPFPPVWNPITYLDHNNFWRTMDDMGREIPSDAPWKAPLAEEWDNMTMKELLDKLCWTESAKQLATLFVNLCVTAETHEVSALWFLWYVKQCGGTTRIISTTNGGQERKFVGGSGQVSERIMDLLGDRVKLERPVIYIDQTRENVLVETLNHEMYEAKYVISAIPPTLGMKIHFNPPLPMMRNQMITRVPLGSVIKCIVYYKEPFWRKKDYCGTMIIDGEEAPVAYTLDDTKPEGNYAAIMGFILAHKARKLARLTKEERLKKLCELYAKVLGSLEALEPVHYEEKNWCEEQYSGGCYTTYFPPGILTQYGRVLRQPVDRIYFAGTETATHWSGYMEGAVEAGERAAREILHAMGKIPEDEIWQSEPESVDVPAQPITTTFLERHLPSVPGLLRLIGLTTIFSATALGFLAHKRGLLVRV
Description: as §2

Row | AUC(0-t) (in vivo; iv, 5 mg/kg) [ng·h/mL] | Vd (in vivo; iv, 5 mg/kg) [L/kg] | clearance (in vivo; iv, 5 mg/kg) [mL/min/kg] | half-life (in vivo; iv, 5 mg/kg) [h] | AUC(0-t) (in vivo; po, 30 mg/kg) [ng·h/mL] | Cmax (in vivo; po, 30 mg/kg) [ng/mL] | F (in vivo; po, 30 mg/kg) [%] | Tmax (in vivo; po, 30 mg/kg) [h] | pIC50 (DYRK1A) | % enzyme inhibition relative to DMSO controls [6] | pIC50 (LRRK2) | pIC50 (LRRK2 G2019S) | Compound | protection against MPTP-induced TH cell loss and dopaminergic degeneration in substantia nigra and striatum [1] | locomotor activities in MPTP-injected mice [1] | striatal dopamine levels in MPTP treated mice [1] | protection against MPTP-induced histological deficits [3] | protection against MPTP-induced motor-deficits [3] | protection against MPTP-induced neurochemical deficits [3] | protection against MPTP-induced TH neuronal loss in the substantia nigra and in the striatum [4] | solubility (physchem) [µM] | other results
1 | 1020 | 15.2 | 123 | 2.26 | 1040 | 133 | 24 | 6.7 | > 6.30 | 5-15% | > 6.30 | > 6.30 | Cc1n[nH]c2ncc(-c3cncc(N4CCOCC4)n3)cc12 [Compound 105, 4-(6-(3-methyl-1H-pyrazolo[3,4-b]pyridin-5-yl)pyrazin-2-yl)morpholine] | dose-dependent protection | Improve Locomotor Activities | Restore Striatal Dopamine Levels | significantly protected | significantly protected | not against neurochemical deficits | Protect Against MPTP-Induced TH Neuronal Loss | – | –
2 | 1020 | 15.2 | 123 | 2.26 | 1040 | 133 | 24 | 6.7 | > 6.30 | 5-15% | > 6.30 | > 6.30 | c1cc2cc(-c3cncc(N4CCOCC4)n3)cnc2[nH]1 [Compound 148, 4-(6-(1H-pyrrolo[2,3-b]pyridin-5-yl)pyrazin-2-yl)morpholine] | dose-dependent protection | Improve Locomotor Activities | Restore Striatal Dopamine Levels | significantly protected | significantly protected | not against neurochemical deficits | – | – | pIC50 (recombinant human MAO-A): < 4.00; pIC50 (recombinant human MAO-B): 5.06
3 | – | – | – | – | – | – | – | – | – | – | – | – | C=C(C)[C@H]1Cc2c(ccc3c2O[C@@H]2COc4cc(OC)c(OC)cc4[C@@H]2C3=O)O1 [Rotenone, reference compound] | – | – | – | – | – | – | – | 1 (≈ 0.394 µg/mL) | ATP % Control ([2]; 0.001 μM, 24 hrs): 98%; Cell Mass % Control ([2]; 0.001 μM, 24 hrs): 105%; Mem Tox % Control ([2]; 0.001 μM, 24 hrs): 100%; ATP % Control ([2]; 0.1 μM, 24 hrs): 34%; Cell Mass % Control ([2]; 0.1 μM, 24 hrs): 54%; Mem Tox % Control ([2]; 0.1 μM, 24 hrs): 98%; ATP % Control ([2]; 1 μM, 24 hrs): 4%; Cell Mass % Control ([2]; 1 μM, 24 hrs): 25%; Mem Tox % Control ([2]; 1 μM, 24 hrs): 46%; ATP TC50 ([2]; 24 hrs): 80 nM; Cell Mass TC50 ([2]; 24 hrs): 230 nM; Mem Tox TC50 ([2]; 24 hrs): 930 nM

Row | Compound | AUC(0-t) (in vivo; iv, 5 mg/kg) [ng·h/mL] | Vd (in vivo; iv, 5 mg/kg) [L/kg] | clearance (in vivo; iv, 5 mg/kg) [mL/min/kg] | half-life (in vivo; iv, 5 mg/kg) [h] | AUC(0-t) (in vivo; po, 30 mg/kg) [ng·h/mL] | Cmax (in vivo; po, 30 mg/kg) [ng/mL] | F (in vivo; po, 30 mg/kg) [%] | Tmax (in vivo; po, 30 mg/kg) [h] | pIC50 (DYRK1A) | % enzyme inhibition relative to DMSO controls [6] | pIC50 (LRRK2) | pIC50 (LRRK2 G2019S) | protection against MPTP-induced TH cell loss and dopaminergic degeneration in substantia nigra and striatum [1] | locomotor activities in MPTP-injected mice [1] | striatal dopamine levels in MPTP treated mice [1] | protection against MPTP-induced histological deficits [3] | protection against MPTP-induced motor-deficits [3] | protection against MPTP-induced neurochemical deficits [3] | protection against MPTP-induced TH neuronal loss in the substantia nigra and in the striatum [4] | solubility (physchem) [µM] | other results
4 | Cc1n[nH]c2ncc(-c3cncc(NC4CCN(C)CC4)n3)cc12.Cl [13 HCl, 6-(3-methyl-1H-pyrazolo[3,4-b]pyridin-5-yl)-N-(1-methylpiperidin-4-yl)pyrazin-2-amine hydrochloride] | 1020 | 15.2 | 123 | 2.26 | 1040 | 133 | 24 | 6.7 | – | – | – | – | dose-dependent protection | Improve Locomotor Activities | Restore Striatal Dopamine Levels | significantly protected | significantly protected | not against neurochemical deficits | Protect Against MPTP-Induced TH Neuronal Loss | 50 | ATP TC50 ([2]; rat, 24 h): >50000 nM; Cell Mass TC50 ([2]; rat, 24 h): >50000 nM; Mem Tox TC50 ([2]; rat, 24 h): >50000 nM; ATP % Control ([2]; rat, 24 h, 5 μM): 93%; Cell Mass % Control ([2]; rat, 24 h, 5 μM): 89%; Mem Tox % Control ([2]; rat, 24 h, 5 μM): 93%; ATP % Control ([2]; rat, 24 h, 10 μM): 91%; Cell Mass % Control ([2]; rat, 24 h, 10 μM): 81%; Mem Tox % Control ([2]; rat, 24 h, 10 μM): 91%; ATP % Control ([2]; rat, 24 h, 50 μM): 78%; Cell Mass % Control ([2]; rat, 24 h, 50 μM): 62%; Mem Tox % Control ([2]; rat, 24 h, 50 μM): 90%; Calc. Conc. of test compound 13 HCl in Mice Brains ([5]; individual subjects, hydrochloride): 2.92 ng/g and 1.36 ng/g and 2.32 ng/g and 3.09 ng/g and 3.79 ng/g and 2.74 ng/g and 3.03 ng/g and 2.72 ng/g; Calc. Conc. of test compound 13 HCl in Mice Brains, Mean ([5]; mean of subjects): 2.75 ng/g
